In US9546173B2 (Novartis AG, priority 2012, dated 2017):

target: RSK2 (Homo sapiens (Human), UniProt P51812); assay: In vitro inhibition of RSK2; assay type: biochemical; details: in vitro activity on RSK2; where multiple measurements were made, each value is reported
Experimental: The following Table 3 lists compounds that were tested for inhibition of RSK; the IC50 values are in micromolar units, and refer to inhibition of RSK1 and RSK2, respectively. Where multiple measurements were made, each value is reported.

RSK2, sequence (P51812 whole entry, species assumed): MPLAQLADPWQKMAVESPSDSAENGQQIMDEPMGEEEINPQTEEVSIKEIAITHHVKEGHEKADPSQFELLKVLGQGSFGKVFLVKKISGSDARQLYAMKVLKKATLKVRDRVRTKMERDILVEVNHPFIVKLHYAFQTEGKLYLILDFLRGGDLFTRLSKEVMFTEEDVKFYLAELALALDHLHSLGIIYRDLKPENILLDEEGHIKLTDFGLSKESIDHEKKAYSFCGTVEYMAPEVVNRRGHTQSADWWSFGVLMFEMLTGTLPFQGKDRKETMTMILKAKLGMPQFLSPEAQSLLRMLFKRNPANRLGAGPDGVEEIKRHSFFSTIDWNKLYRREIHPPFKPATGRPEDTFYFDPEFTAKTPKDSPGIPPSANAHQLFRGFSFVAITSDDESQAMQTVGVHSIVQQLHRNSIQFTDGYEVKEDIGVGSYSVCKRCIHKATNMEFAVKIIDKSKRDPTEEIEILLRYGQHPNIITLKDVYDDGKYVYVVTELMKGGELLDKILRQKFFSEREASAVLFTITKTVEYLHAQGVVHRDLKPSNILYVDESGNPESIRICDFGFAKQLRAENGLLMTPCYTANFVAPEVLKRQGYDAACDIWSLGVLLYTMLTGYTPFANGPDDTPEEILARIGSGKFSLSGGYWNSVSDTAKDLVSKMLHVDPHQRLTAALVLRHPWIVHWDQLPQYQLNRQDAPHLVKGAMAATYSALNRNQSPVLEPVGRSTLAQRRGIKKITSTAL

Structure (SMILES)	IC50
CN1CCN(C(=O)N2Cc3nc(Nc4ccccc4)ncc3C2(C)C)CC1(C)C [compound 149, (5,5-dimethyl-2-(phenylamino)-5H-pyrrolo[3,4-d]pyrimidin-6(7H)-yl)(3,3,4-trimethylpiperazin-1-yl)methanone]	611 nM
C[C@@H](NC(=O)N1Cc2nc(Nc3ccccc3)ncc2C1(C)C)c1ccccc1 [compound 156, (R)-5,5-dimethyl-2-(phenylamino)-N-(1-phenylethyl)-5H-pyrrolo[3,4-d]pyrimidine-6(7H)-carboxamide]	2570 nM
C[C@H](NC(=O)N1Cc2nc(Nc3ccccc3)ncc2C1(C)C)c1ccccc1 [compound 169, (S)-5,5-dimethyl-2-(phenylamino)-N-(1-phenylethyl)-5H-pyrrolo[3,4-d]pyrimidine-6(7H)-carboxamide]	> 25000 nM

target: activated ERK2 (Homo sapiens (Human), UniProt P28482); assay: Activated ERK2 kinase assay (AlphaScreen, ERKtide peptide phosphorylation); assay type: biochemical; details: 0.25 nM ERK2, 200 nM ERKtide peptide, 35 μM ATP, 30 min preincubation; read-out: ERK2 IC50
Sequence (P28482 whole entry): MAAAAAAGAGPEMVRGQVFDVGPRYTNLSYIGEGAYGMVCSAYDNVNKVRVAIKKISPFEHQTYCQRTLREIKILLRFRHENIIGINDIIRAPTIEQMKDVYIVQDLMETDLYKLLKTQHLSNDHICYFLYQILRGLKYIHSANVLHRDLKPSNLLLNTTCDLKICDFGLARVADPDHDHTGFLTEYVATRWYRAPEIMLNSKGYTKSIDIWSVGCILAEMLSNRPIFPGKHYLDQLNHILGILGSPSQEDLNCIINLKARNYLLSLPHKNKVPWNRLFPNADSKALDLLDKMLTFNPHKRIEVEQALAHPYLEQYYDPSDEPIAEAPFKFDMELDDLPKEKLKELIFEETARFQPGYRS

Structure (SMILES)	IC50
CN(C)C[C@H](NC(=O)N1Cc2nc(Nc3ccccc3)ncc2C1(C)C)c1ccccc1 [compound 168, (R)-N-(2-(dimethylamino)-1-phenylethyl)-5,5-dimethyl-2-(phenylamino)-5H-pyrrolo[3,4-d]pyrimidine-6(7H)-carboxamide]	125000 nM

same assay, conditions: […] ERK2, 200 nM ERKtide peptide, 35 μM ATP, 30 min preincubation; read-out: ERK2 IC50

Structure (SMILES)	IC50
CC1(C)c2cnc(NC3CCOCC3)nc2CN1C(=O)N[C@@H]1CCCN(S(=O)(=O)c2cccc(Cl)c2)C1 [compound 118, (R)-N-(1-((3-chlorophenyl)sulfonyl)piperidin-3-yl)-5,5-dimethyl-2-((tetrahydro-2H-pyran-4-yl)amino)-5H-pyrrolo[3,4-d]pyrimidine-6(7H)-carboxamide]	23 nM
CC1(C)c2cnc(NC3CCOCC3)nc2CN1C(=O)N[C@@H]1CCCN(S(=O)(=O)c2ccc(Cl)cc2)C1 [compound 119, (R)-N-(1-((4-chlorophenyl)sulfonyl)piperidin-3-yl)-5,5-dimethyl-2-((tetrahydro-2H-pyran-4-yl)amino)-5H-pyrrolo[3,4-d]pyrimidine-6(7H)-carboxamide]	156 nM
CC1(C)c2cnc(NC3CCOCC3)nc2CN1C(=O)NCc1ccccc1F [compound 120, N-(2-fluorobenzyl)-5,5-dimethyl-2-((tetrahydro-2H-pyran-4-yl)amino)-5H-pyrrolo[3,4-d]pyrimidine-6(7H)-carboxamide]	158 nM
CC1(C)c2cnc(NC3CCOCC3)nc2CN1C(=O)NCc1ccc(C(F)(F)F)cc1 [compound 121, 5,5-dimethyl-2-((tetrahydro-2H-pyran-4-yl)amino)-N-(4-(trifluoromethyl)benzyl)-5H-pyrrolo[3,4-d]pyrimidine-6(7H)-carboxamide]	10 nM
CC1(C)c2cnc(NC3CCOCC3)nc2CN1C(=O)NCc1ccc(C#N)cc1 [compound 122, N-(4-cyanobenzyl)-5,5-dimethyl-2-((tetrahydro-2H-pyran-4-yl)amino)-5H-pyrrolo[3,4-d]pyrimidine-6(7H)-carboxamide]	38 nM
CC1(C)c2cnc(NC3CCOCC3)nc2CN1C(=O)NCc1ccc(Br)cc1 [compound 123, N-(4-bromobenzyl)-5,5-dimethyl-2-((tetrahydro-2H-pyran-4-yl)amino)-5H-pyrrolo[3,4-d]pyrimidine-6(7H)-carboxamide]	7 nM
CC1(C)c2cnc(NC3CCOCC3)nc2CN1C(=O)NCc1ccc(Cl)c(F)c1 [compound 124, N-(4-chloro-3-fluorobenzyl)-5,5-dimethyl-2-((tetrahydro-2H-pyran-4-yl)amino)-5H-pyrrolo[3,4-d]pyrimidine-6(7H)-carboxamide]	6 nM
COc1ccc(CNC(=O)N2Cc3nc(NC4CCOCC4)ncc3C2(C)C)cc1 [compound 125, N-(4-methoxybenzyl)-5,5-dimethyl-2-((tetrahydro-2H-pyran-4-yl)amino)-5H-pyrrolo[3,4-d]pyrimidine-6(7H)-carboxamide]	56 nM
CC1(C)c2cnc(NC3CCOCC3)nc2CN1C(=O)NCc1ccc(Cl)c(Cl)c1 [compound 126, N-(3,4-dichlorobenzyl)-5,5-dimethyl-2-((tetrahydro-2H-pyran-4-yl)amino)-5H-pyrrolo[3,4-d]pyrimidine-6(7H)-carboxamide]	1 nM
Cc1cccc([C@@H](CO)NC(=O)N2Cc3nc(NC4CCOCC4)ncc3C2(C)C)c1 [compound 127, (S)-N-(2-hydroxy-1-(m-tolyl)ethyl)-5,5-dimethyl-2-((tetrahydro-2H-pyran-4-yl)amino)-5H-pyrrolo[3,4-d]pyrimidine-6(7H)-carboxamide]	16 nM
CC1(C)c2cnc(NC3CCOCC3)nc2CN1C(=O)N[C@H](CO)c1cccc(F)c1 [compound 128, (S)-N-(1-(3-fluorophenyl)-2-hydroxyethyl)-5,5-dimethyl-2-((tetrahydro-2H-pyran-4-yl)amino)-5H-pyrrolo[3,4-d]pyrimidine-6(7H)-carboxamide]	9 nM
Cc1ccc(CNC(=O)N2Cc3nc(NC4CCOCC4)ncc3C2(C)C)cc1 [compound 129, 5,5-dimethyl-N-(4-methylbenzyl)-2-((tetrahydro-2H-pyran-4-yl)amino)-5H-pyrrolo[3,4-d]pyrimidine-6(7H)-carboxamide]	21 nM
CC1(C)c2cnc(NC3CCOCC3)nc2CN1C(=O)NCc1cccc(S(=O)(=O)C2CC2)c1 [compound 130, N-(3-(cyclopropylsulfonyl)benzyl)-5,5-dimethyl-2-((tetrahydro-2H-pyran-4-yl)amino)-5H-pyrrolo[3,4-d]pyrimidine-6(7H)-carboxamide]	71 nM
C[C@@H](NC(=O)N1Cc2nc(NC3CCOCC3)ncc2C1(C)C)c1cccc(S(C)(=O)=O)c1 [compound 131, (R)-5,5-dimethyl-N-(1-(3-(methylsulfonyl)phenyl)ethyl)-2-((tetrahydro-2H-pyran-4-yl)amino)-5H-pyrrolo[3,4-d]pyrimidine-6(7H)-carboxamide]	9 nM
CC1(C)c2cnc(NC3CCOCC3)nc2CN1C(=O)NCc1ccc(SC(F)(F)F)cc1 [compound 132, 5,5-dimethyl-2-((tetrahydro-2H-pyran-4-yl)amino)-N-(4-((trifluoromethyl)thio)benzyl)-5H-pyrrolo[3,4-d]pyrimidine-6(7H)-carboxamide]	11 nM
CC1(C)c2cnc(NC3CCOCC3)nc2CN1C(=O)NCc1ccc(Oc2ccccc2)cc1 [compound 133, 5,5-dimethyl-N-(4-phenoxybenzyl)-2-((tetrahydro-2H-pyran-4-yl)amino)-5H-pyrrolo[3,4-d]pyrimidine-6(7H)-carboxamide]	11 nM
CC1(C)c2cnc(NC3CCOCC3)nc2CN1C(=O)NCc1ccc([S+]([O-])C(F)(F)F)cc1 (stereo not shown) [compound 134, 5,5-dimethyl-2-((tetrahydro-2H-pyran-4-yl)amino)-N-(4-((trifluoromethyl)sulfinyl)benzyl)-5H-pyrrolo[3,4-d]pyrimidine-6(7H)-carboxamide]	39 nM
CC1(C)c2cnc(NC3CCOCC3)nc2CN1C(=O)NCc1cccc(C#N)c1 [compound 135, N-(3-cyanobenzyl)-5,5-dimethyl-2-((tetrahydro-2H-pyran-4-yl)amino)-5H-pyrrolo[3,4-d]pyrimidine-6(7H)-carboxamide]	38 nM
C[C@@H](NC(=O)N1Cc2nc(NC3CCOCC3)ncc2C1(C)C)c1ccc(C#N)cc1 [compound 136, (R)-N-(1-(4-cyanophenyl)ethyl)-5,5-dimethyl-2-((tetrahydro-2H-pyran-4-yl)amino)-5H-pyrrolo[3,4-d]pyrimidine-6(7H)-carboxamide]	21 nM
CC1(C)c2cnc(NC3CCOCC3)nc2CN1C(=O)NCc1ccc(S(=O)(=O)C(F)(F)F)cc1 [compound 137, 5,5-dimethyl-2-((tetrahydro-2H-pyran-4-yl)amino)-N-(4-((trifluoromethyl)sulfonyl)benzyl)-5H-pyrrolo[3,4-d]pyrimidine-6(7H)-carboxamide]	19 nM
CC1(C)c2cnc(NC3CCOCC3)nc2CN1C(=O)N[C@H](CCO)c1ccccc1 [compound 138, (R)-N-(3-hydroxy-1-phenylpropyl)-5,5-dimethyl-2-((tetrahydro-2H-pyran-4-yl)amino)-5H-pyrrolo[3,4-d]pyrimidine-6(7H)-carboxamide]	73 nM
C[C@@H](NC(=O)N1Cc2nc(NC3CCOCC3)ncc2C1(C)C)c1ccc(S(C)(=O)=O)cc1 [compound 139, (R)-5,5-dimethyl-N-(1-(4-(methylsulfonyl)phenyl)ethyl)-2-((tetrahydro-2H-pyran-4-yl)amino)-5H-pyrrolo[3,4-d]pyrimidine-6(7H)-carboxamide]	32 nM
CC1(C)c2cnc(NC3CCOCC3)nc2CN1C(=O)N[C@@H]1CCN(Cc2ccccc2F)C1 [compound 146, (R)-N-(1-(2-fluorobenzyl)pyrrolidin-3-yl)-5,5-dimethyl-2-((tetrahydro-2H-pyran-4-yl)amino)-5H-pyrrolo[3,4-d]pyrimidine-6(7H)-carboxamide]	14 nM
CC1(C)c2cnc(NC3CCOCC3)nc2CN1C(=O)NC1CC(CO)CN(Cc2ccccc2F)C1 (stereo not shown) [compound 147, N-(1-(2-fluorobenzyl)-5-(hydroxymethyl)piperidin-3-yl)-5,5-dimethyl-2-((tetrahydro-2H-pyran-4-yl)amino)-5H-pyrrolo[3,4-d]pyrimidine-6(7H)-carboxamide]	214 nM
CN1CCN(C(=O)N2Cc3nc(Nc4ccccc4)ncc3C2(C)C)CC1(C)C [compound 149, (5,5-dimethyl-2-(phenylamino)-5H-pyrrolo[3,4-d]pyrimidin-6(7H)-yl)(3,3,4-trimethylpiperazin-1-yl)methanone]	37700 nM
C[C@@H](NC(=O)N1Cc2nc(NC3CCOCC3)ncc2C1C1CC1)c1cccc(Cl)c1 (stereo partly drawn) [compound 171, N-((R)-1-(3-chlorophenyl)ethyl)-5-cyclopropyl-2-((tetrahydro-2H-pyran-4-yl)amino)-5H-pyrrolo[3,4-d]pyrimidine-6(7H)-carboxamide]	343 nM
C[C@@H](NC(=O)N1Cc2nc(NC3CCOCC3)ncc2C1C1CC1)c1cccc(Cl)c1 (stereo partly drawn) [compound 172, N-((R)-1-(3-chlorophenyl)ethyl)-5-cyclopropyl-2-((tetrahydro-2H-pyran-4-yl)amino)-5H-pyrrolo[3,4-d]pyrimidine-6(7H)-carboxamide]	146 nM
